Source: paper PMC3973950, “Synthesis of 5-arylidine amino-1,3,4-thiadiazol-2-[(N-substituted benzyol)]sulphonamides endowed with potent antioxidants and anticancer activity induces growth inhibition in HEK293, BT474 and NCI-H226 cells” (Medicinal Chemistry Research, 2013)

Legend:
[1] = In vitro cytotoxicity by MTT assay, HEK 293; type: cell-based, human; details: human, HEK 293 cells, read-out: % cytotoxicity (100 − % cell survival) of HEK 293 cell line
Method in brief: (§1)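 Monolayers seeded at […] (about 10,000 per well) were treated after 24 h with the synthesized compounds and incubated three days. Viability was taken from MTT reduction, with formazan measured at 490 nm.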

[2] = system: BT474 (breast cancer cell line); assay: In vitro cytotoxicity by MTT assay, BT474; type: cell-based; details: Homo sapiens, 72 h; for cytotoxicity at 0.005 µM: BT-474, 0.005 μM; for cytotoxicity at 0.005 µM / cytotoxicity at 0.015 µM / cytotoxicity at 0.045 µM / cytotoxicity at 0.13 µM / cytotoxicity at 0.41 µM / cytotoxicity at 1.23 µM / cytotoxicity at 3.7 µM / cytotoxicity at 11.11 µM / cytotoxicity at 33.33 µM / cytotoxicity at 100 µM: read-out: % cytotoxicity (100 − % cell survival) of BT474 cell line; for cytotoxicity at 0.015 µM: BT-474, 0.015 μM; for cytotoxicity at 0.045 µM: BT-474, 0.045 μM; for cytotoxicity at 0.13 µM: BT-474, 0.13 μM; for cytotoxicity at 0.41 µM: BT-474, 0.41 μM; for cytotoxicity at 1.23 µM: BT-474, 1.23 μM; for cytotoxicity at 3.7 µM: BT-474, 3.7 μM; for cytotoxicity at 11.11 µM: BT-474, 11.11 μM; for cytotoxicity at 33.33 µM: BT-474, 33.33 μM; for cytotoxicity at 100 µM: BT-474, 100 μM
Method in brief: as §1

[3] = In vitro cytotoxicity by MTT assay, NCI-H226; type: cell-based; details: human, NCI-H226 lung cancer cells, 0.015 μM, read-out: % Cytotoxicity (100 − % cell survival) of NCI-H226 cell line
Method in brief: as §1

[4] = system: NCI-H226 (lung cancer cell line); assay: In vitro cytotoxicity by MTT assay, NCI-H226; type: cell-based; details: Homo sapiens, 72 h, read-out: % Cytotoxicity (100 − % cell survival) of NCI-H226 cell line; for cytotoxicity at 0.005 µM: NCI-H226, 0.005 μM; for cytotoxicity at 0.045 µM: NCI-H226, 0.045 μM; for cytotoxicity at 0.13 µM: NCI-H226, 0.13 μM; for cytotoxicity at 0.41 µM: NCI-H226, 0.41 μM; for cytotoxicity at 1.23 µM: NCI-H226, 1.23 μM; for cytotoxicity at 3.7 µM: NCI-H226, 3.7 μM; for cytotoxicity at 11.11 µM: NCI-H226, 11.11 μM; for cytotoxicity at 33.33 µM: NCI-H226, 33.33 μM; for cytotoxicity at 100 µM: NCI-H226, 100 μM
Method in brief: as §1

Compound | cytotoxicity at 72 h, 0.005 µM [1] [%] | cytotoxicity at 72 h, 0.015 µM [1] [%] | cytotoxicity at 72 h, 0.045 µM [1] [%] | cytotoxicity at 72 h, 0.13 µM [1] [%] | cytotoxicity at 72 h, 0.41 µM [1] [%] | cytotoxicity at 72 h, 1.23 µM [1] [%] | cytotoxicity at 72 h, 3.7 µM [1] [%] | cytotoxicity at 72 h, 11.11 µM [1] [%] | cytotoxicity at 72 h, 33.33 µM [1] [%] | cytotoxicity at 72 h, 100 µM [1] [%] | cytotoxicity at 0.005 µM [2] [%] | cytotoxicity at 0.015 µM [2] [%] | cytotoxicity at 0.045 µM [2] [%] | cytotoxicity at 0.13 µM [2] [%] | cytotoxicity at 0.41 µM [2] [%] | cytotoxicity at 1.23 µM [2] [%] | cytotoxicity at 3.7 µM [2] [%] | cytotoxicity at 11.11 µM [2] [%] | cytotoxicity at 33.33 µM [2] [%] | cytotoxicity at 100 µM [2] [%] | also measured
Nc1ccc(C(=O)NS(=O)(=O)c2nnc(NS(=O)(=O)c3ccc(N)cc3)s2)cc1 [Compound 7c] | 36.5 | 38.2 | 40.6 | 42.7 | 43.4 | 45.3 | 47.1 | 49.1 | 49.2 | 49.9 | 18.8 | 19.4 | 19.8 | 20.1 | 21 | 22.8 | 24.2 | 25.7 | 26.4 | 27.9 | cytotoxicity at 72 h, 0.015 µM [3]: 34%; cytotoxicity at 0.005 µM [4]: 33.2%; cytotoxicity at 0.045 µM [4]: 34.8%; cytotoxicity at 0.13 µM [4]: 36.6%; cytotoxicity at 0.41 µM [4]: 37.8%; cytotoxicity at 1.23 µM [4]: 38%; cytotoxicity at 3.7 µM [4]: 38.2%; cytotoxicity at 11.11 µM [4]: 38.6%; cytotoxicity at 33.33 µM [4]: 38.9%; cytotoxicity at 100 µM [4]: 40.3%
Nc1nnc(S(=O)(=O)NC(=O)c2cccc([N+](=O)[O-])c2)s1 [Compound 4f] | 24.3 | 26.4 | 28.1 | 28.4 | 28.9 | 29.2 | 30 | 30.7 | 31.2 | 32 | 37.6 | 39 | 41.3 | 43.8 | 45.3 | 48.5 | 50.1 | 52.4 | 55.3 | 59.3 | CC50 ([2]; BT-474, BT474, concentration at which 50 % of the cells are dead, read-out: CTC50 (cytotoxicity concentration)): 1560 nM; cytotoxicity at 72 h, 0.015 µM [3]: 38.6%; cytotoxicity at 0.005 µM [4]: 37.2%; cytotoxicity at 0.045 µM [4]: 39.7%; cytotoxicity at 0.13 µM [4]: 41.6%; cytotoxicity at 0.41 µM [4]: 42.9%; cytotoxicity at 1.23 µM [4]: 45.8%; cytotoxicity at 3.7 µM [4]: 46.5%; cytotoxicity at 11.11 µM [4]: 48.3%; cytotoxicity at 33.33 µM [4]: 50.1%; cytotoxicity at 100 µM [4]: 52.9%
CC(=O)Nc1ccc(S(=O)(=O)Nc2nnc(S(=O)(=O)NC(=O)c3ccccc3O)s2)cc1 [Compound 6d] | 33.3 | 34.8 | 35.1 | 35.9 | 36.7 | 37.2 | 38.4 | 39.3 | 40.7 | 41.3 | 26.3 | 27.7 | 28.9 | 29.4 | 30.6 | 31 | 32.1 | 32.9 | 33.3 | 33.9 | cytotoxicity at 72 h, 0.015 µM [3]: 36.4%; cytotoxicity at 0.005 µM [4]: 35.5%; cytotoxicity at 0.045 µM [4]: 37%; cytotoxicity at 0.13 µM [4]: 39.1%; cytotoxicity at 0.41 µM [4]: 41.2%; cytotoxicity at 1.23 µM [4]: 42%; cytotoxicity at 3.7 µM [4]: 43.4%; cytotoxicity at 11.11 µM [4]: 45.3%; cytotoxicity at 33.33 µM [4]: 47.3%; cytotoxicity at 100 µM [4]: 49.1%
Nc1nnc(S(=O)(=O)NC(=O)c2ccc(Cl)cc2)s1 [Compound 4g] | 39.3 | 40.5 | 41.2 | 43.7 | 45.1 | 45.6 | 46.4 | 47.1 | 48.7 | 50.2 | 30.6 | 31.4 | 32.1 | 33.2 | 34.1 | 34.9 | 35.2 | 36.2 | 37.8 | 38.2 | cytotoxicity at 72 h, 0.015 µM [3]: 36.1%; cytotoxicity at 0.005 µM [4]: 35.8%; cytotoxicity at 0.045 µM [4]: 37%; cytotoxicity at 0.13 µM [4]: 37.1%; cytotoxicity at 0.41 µM [4]: 37.8%; cytotoxicity at 1.23 µM [4]: 38.1%; cytotoxicity at 3.7 µM [4]: 39.4%; cytotoxicity at 11.11 µM [4]: 40.3%; cytotoxicity at 33.33 µM [4]: 41.4%; cytotoxicity at 100 µM [4]: 41.8%
